# Assay results reported in a melting point compilation (Tetko et al.; mined from patent text by program, amines drawn as free bases though some values may be those of a salt).
row,Structure (SMILES),melting point
1,CNC(=O)c1ccc(N2CCN(Cc3cc4c(c(OC(F)F)c3)OC(C)C(=O)N4)CC2)cc1 (stereo unspecified),210 to 213 °C
2,COc1ccc2c(c1)C(c1ccc(N)cc1)=NN=C(C)C2,136 to 138 °C
3,c1cc(OCC2CO2)c2cn[nH]c2c1 (stereo unspecified),60 °C
4,C=CCOc1cc(-n2c(=O)cc(C(F)(F)F)n(C)c2=O)c(F)cc1Br,120 °C
5,Cc1c(CO)ncnc1N(C)C,46 to 48 °C
6,CNc1c(-c2cc(Cl)ccc2O)c2cc(C(F)(F)F)ccc2[nH]c1=O,238 to 240 °C
7,OCC1NCCc2occc21 (stereo unspecified),66 to 69 °C
8,Cc1nn(CCC(C)O)c(-c2ccc(F)cc2)c1-c1ccc2c(c1)NC(=O)CO2 (stereo unspecified),158 to 159 °C
9,Cc1ccc2cc(NS(=O)(=O)c3cc(Cl)ccc3Cl)ccc2n1,125 °C
10,COC(=O)c1ccc(CCC(O)CCc2ccc(C(=O)OC)cc2)cc1,129 to 130 °C
11,CCCc1c(OCC2COc3cc(CC(=O)OC)ccc3O2)ccc(C(C)=O)c1O (stereo unspecified),72 to 75 °C
12,CCCC(=O)N1N=C(c2ccc([N+](=O)[O-])cc2)c2cc(Cl)c(Cl)cc2CC1C (stereo unspecified),75 to 77 °C
13,CCOC(=O)NC(=NCCN(Cc1ccc(Cl)cc1)c1ccccn1)NCCCc1c[nH]cn1,94 to 96 °C
14,Cc1cc(C)nc(SCC(CS(=O)(=O)c2ccc(-c3ccc(Cl)cc3)cc2)C(=O)O)n1 (stereo unspecified),170 to 172 °C
15,CN1C(=O)c2cccc(SCc3ccccc3)c2C1=O,180 to 187 °C
16,OC(CCc1cccnc1)COc1ccc2ccccc2c1 (stereo unspecified),93 to 95 °C
17,CCCCCCCCCCCCc1ccc(CO)cc1,44 to 45 °C
18,CCCN1CCN(CCCOc2ccc3nc(C#N)nc(NCC(C)(C)C)c3c2)CC1,102 to 104 °C
19,O=C1OC(=O)c2cc(Oc3ccc(-c4ccccc4)cc3)ccc21,199 °C
20,CCCCCCCCCCCCCCCCCCCc1cccc(N)c1,50 to 51 °C
21,COc1ccc(C(=O)c2c(Cl)cc(Cl)cc2Cl)cc1Cc1ccc(=O)n(C)n1,150 °C
22,CN1CCN(c2cc3c(F)cccc3c(=O)[nH]2)CC1CO (stereo unspecified),216 to 217 °C
23,CNc1cccc(N)c1C(N)=O,130 to 132 °C
24,CCOC(=O)c1cc(O)c(C(=O)c2ccc(Cl)cc2)c([N+](=O)[O-])c1,188 to 192 °C
25,Nc1nc2c(s1)CCN(CC=Cc1cccc(OCc3ccccn3)c1)CC2,35 to 40 °C
26,CSc1cnc(NC(=O)c2ccc(OC(C)=O)cc2)s1,193 to 196 °C

row,Structure (SMILES),melting point
1,CSc1sc(C(N)=O)c2c1-c1[nH]c(-c3ccccc3)nc1CC2,206 to 207 °C
2,"CN1C(=O)N(CC(CS(=O)(=O)c2ccc(Oc3ccc(Cl)cc3)cc2)N(O)C=O)C(=O)C1(C)C (single isomer, unassigned; (-))",111 °C
3,CNc1ccc(F)c2c1C(=O)c1ccccc1-2,139 to 144 °C
4,COc1cc(-c2nc3ccc(OCCN(C(C)C)C(C)C)cc3n2Cc2ccccc2)cc(OC)c1OC,101 °C
5,Cc1nc2c(OC3SCC(O)C(O)C3O)cccc2n1C (stereo unspecified),153 °C
6,O=C(C[C@@H](CCCC1CCCCC1)c1nc(CNC2CCOCC2)no1)NO,109 to 110 °C
7,O=C1C(=Cc2ccc([N+](=O)[O-])cc2)CCc2cc(OCCn3ccnc3)ccc21,184 to 185 °C
8,COc1cc2onc(C3CCN(c4c(C)[nH]c5ccccc45)CC3)c2cc1OC,176 to 178 °C
9,Cc1oncc1C(=O)Nc1ccc(N)cc1,123 to 128 °C
10,Cc1cc(C(=O)NC2=NC(C)(C)CC2(c2ccccc2)c2ccccc2)[nH]n1,193 to 195 °C
11,CS/C=C(/C)n1c(=O)n(Cc2cc(C(F)(F)F)cc(C(F)(F)F)c2)c2ccccc21,148 °C
12,C#CCOc1ccc2c(C)cc(=O)oc2c1C(=O)C=Cc1cccc(OC)c1,154 to 156 °C
13,N#CCCNC(=O)C1=CC(CF)(CF)Oc2ccc(Br)cc21,140 to 142 °C
14,CN(Cc1ccccc1)C(=O)Cn1c(=O)n(C)c2nc(-c3ccccc3)ncc21,160 to 161 °C
15,CN(C)C(=O)c1cn(-c2cc3c(=O)n(NS(C)(=O)=O)c(=O)[nH]c3cc2C(F)(F)F)cn1,284 to 286 °C
16,CCNc1nc(SC)ncc1C(=O)O,188 °C
17,O=c1c(/C=C/c2nnn[nH]2)coc2ccccc12,254 to 255 °C
18,CCCCC(=O)N(CCOC)Cc1ccc(-c2ccccc2-c2nnn[nH]2)cc1,120 to 122 °C
19,Cc1ncn(Cc2ccc(N)cc2C(F)(F)F)c1C,185 to 186 °C
20,CCOc1ccc(Nc2n[nH]c(N)c2C#N)cc1,166 to 167 °C
21,O=C(O)C(C1CC(Cl)=NO1)N1C(=O)c2ccccc2C1=O (stereo unspecified),178 to 179 °C
22,Nc1cc(N=c2sc(=S)n3n2CCCC3)c(F)cc1Cl,59 to 61 °C
23,CC(CCc1ccccc1)N(C)C1CCC(c2ccc(OCc3ccccc3)cc2)CC1 (racemic),54.5 to 55.5 °C
24,CCCCCCCS(=O)(=O)c1nn2c(=O)c(C)c(F)nc2s1,143 to 146 °C
25,Cc1csc(C(=O)CCc2ccccc2)c1OCCN(C)C,106 to 108 °C
26,COc1ccc(-c2nc(N)sc2-c2cccnc2)cc1,265 to 266 °C

row,Structure (SMILES),melting point
1,CCOC(=O)C1=C(C)NN=C(c2ccco2)C1c1ccccc1 (stereo unspecified),158 °C
2,CCCCCCCCCCCCCCCCCCNC(=O)OCC(CNS(=O)(=O)CCCI)OC(=O)NC (stereo unspecified),97 to 99 °C
3,Cc1ccc(C(=O)c2cc([N+](=O)[O-])ccc2N2CCC(C)CC2)cc1,86 °C
4,O=C(O)c1ccc(-c2ccc(-c3ccc(C(F)(F)F)cc3)o2)cc1,270 to 271 °C
5,CC(C)(C)OC(=O)NC(C)(C)c1ccc(C(=O)CC#N)cc1,122 to 123 °C
6,CC(C)C(NC(=O)OC(C)(C)C)C(=O)OC(O)C(=O)C1C(C)CC2C3CC(F)C4=CC(=O)C=CC4(C)C3C(O)CC21C (stereo unspecified),166 to 168 °C
7,CC(C)C[C@@H](/C=C/CCO)NP(=O)(c1ccccc1)c1ccccc1,124 °C
8,N#CC(=NOCCn1cncn1)C(N)=O,137 °C
9,CCCCc1ccc2c(=O)c(O)c(-c3cc(O)c(O)c(O)c3)oc2c1,142 °C
10,C=C1CCC2C3CCc4cc(O)c(C=O)cc4C3CCC12C (stereo unspecified),128 to 130 °C
11,CSC1NC(=O)N(Cc2ccco2)C(=O)N1,209 to 211 °C
12,CCc1n[nH]c2cc(-c3ccc4nnn(Cc5ccc6ncccc6c5)c4n3)ccc12,211 to 213 °C
13,CC(=O)c1cccc(F)c1C(=O)O,76 to 81.5 °C
14,c1ccc(-c2cnc(Nc3ccncn3)s2)cc1,> 250 °C
15,CCCCc1nn(-c2ccccc2C(F)(F)F)c(=O)n1Cc1ccc(-c2cc(CCC)ccc2S(=O)(=O)NC(=O)c2ccccc2Cl)cc1F,79 to 82 °C
16,COc1cc(OCCNC(=O)C2Cc3ccccc3N2S(=O)(=O)c2ccc(-c3cc(C(F)(F)F)ccc3Cl)cc2)ccc1C(=O)O (stereo unspecified),98 to 104 °C
17,Cc1ccc(C2c3c(C)c4c(c(C)c3OC2(C)C)CCN4)cc1 (stereo unspecified),135 to 136 °C
18,COc1ccc(S(=O)(=O)C2(C(=O)NO)CCN(C(C)C)CC2)cc1,75 °C
19,O=[N+]([O-])c1ccc(NS(=O)(=O)c2ccc(Cl)c(Cl)c2)c(Cl)c1,199 to 201 °C
20,COC(=O)N1C(=O)C=CC1=O,61 to 63 °C
21,O=C1NC(=O)C(Cc2ccc(OC[C@@H]3CCCN3c3nc4ccccc4s3)cc2)S1 (stereo partly specified),95 °C
22,CCOC(=O)CNC(=O)c1ccc(N)cc1,93 to 94 °C
23,C=CCc1c(O)ccc2c(C)cc(=O)oc12,192 to 195 °C
24,COc1cc(C2CCN(C[C@H](O)C(F)(F)F)CC2)ccc1Nc1ncc2ccc(-c3ccccc3OC)n2n1,77 to 94 °C
25,Cc1[nH]c(C(=O)N2CCC(O)CC2)c(C)c1-c1nc2ccc(C(=O)c3ccccc3)cc2[nH]1,288 to 290 °C
26,N#CCC(=O)Nc1ccc(S(=O)C(F)(F)F)cc1 (stereo unspecified),164 to 165 °C

row,Structure (SMILES),melting point
1,CC(=O)Nc1nc(CCc2ccc(NC(=N)NN)cc2)cs1,216 to 218 °C
2,COc1cc(-c2cn(Cc3ccccc3)c(=O)c3ccccc23)cc(OC)c1OC,166 to 168 °C
3,O=C1N(Cc2ccccc2)Cc2cccnc2N1c1cccc([N+](=O)[O-])c1,144 to 145 °C
4,CC(CCC(=O)O)C1CCC2C3C(=O)CC4CC(OC5CCCCO5)CCC4(C)C3CCC12C (stereo unspecified),157 to 159 °C
5,CS(=O)(=O)Oc1cccc2c1CCCN2,74 to 76 °C
6,N#Cc1ccc(-c2cc(=O)c3cccnc3o2)cc1,250 to 252 °C
7,CCOC(=O)c1cc(CCCOc2c(C)cc(-c3noc(C)n3)cc2C)on1,95 to 96 °C
8,CC(C)(C)OC(=O)NNc1ccc2ccccc2n1,148 to 150 °C
9,Cc1c(Cc2cccnc2)oc2ccc(C(=O)O)cc12,219 to 221 °C
10,CC(C)(C)OC(=O)n1ccc2c([N+](=O)[O-])c(NC(=O)COCc3ccccc3)ccc21,145 to 146 °C
11,Cc1cc(-c2cc(O)c(SCc3ccccc3)c(=O)o2)cc(C)c1O[Si](C)(C)C(C)(C)C,137 to 139 °C
12,CNC(=O)/C=C/c1ccc(C(=O)NCC(=O)N(C)c2ccc(Cl)c(COc3cccc4ccc(C)nc34)c2Cl)cc1,143 to 150 °C
13,CCCCCCCCc1cc2c(cc1/C=C/c1ccc(C(=O)O)cc1)CCC(C)(C)CC2,180 °C
14,CCOC(=O)c1c(Cn2cnnc2)nc2cc(OC)c(OC)cc2c1-c1ccc(OC(C)C)c(OC)c1,178 to 179 °C
15,CC(NC(=O)OCc1ccccc1)NC(=O)C1C(C)(C)CCC1(C)C (stereo unspecified),146 °C
16,C[C@@H](n1cnc2cc(C(N)=O)ccc2c1=O)[C@](O)(Cn1cncn1)c1ccc(F)cc1F,235 to 236 °C
17,Nc1cc2cccc(F)c2oc1=O,173 to 174 °C
18,COc1ccc(CCN2CCc3cc(OC[C@H]4CO[C@](Cn5ccnc5)(c5ccc(Cl)cc5Cl)O4)ccc3C2)cc1 (racemic),121 to 122 °C
19,C1=C(c2cccc(CNCCOc3cccc4ccoc34)c2)CCC1,126 °C
20,CCOC(=O)c1cc(F)c2c(c1Cl)C(OCCF)CCS2(=O)=O (stereo unspecified),87 to 89 °C
21,NC(=O)CCCN1C(=O)c2ccccc2C1=O,160 to 162 °C
22,CN1CC(=O)Nc2ccc(F)cc2C1=O,> 250 °C
23,NC(=S)/C=C/c1cc([N+](=O)[O-])ccc1Cl,236 to 238 °C
